Consider one molecule from US9670217B2, “Process for preparing chlorins and their pharmaceutical uses” (UNIVERSIDADE DE COIMBRA, priority 2008, dated 2017).

Data set [1] relates to SKMEL 188 (human melanoma). In words: Cell photosensitization, filtered halogen lamp, MTT. Format: cell-based. The following applies: [Luzitin-Cl-c] = 20 μM. On the procedure: (§1) Irradiation in in vitro experiments was performed using either a halogen lamp or a laser source. In the first case, a 500 W halogen lamp was placed 50 cm from the irradiated plate to insure a homogeneous irradiation. A cooled water filter (d=35 mm) and a 600 nm cut off filter were placed between the lamp and samples. The fluence rate reaching samples was 3 mW/cm^2. The emission spectrum of the halogen lamp was recorded using a spectroradiometer IL2000 (Spectrocube), FIG. 1. In the second case, three Lynx external cavity diode lasers TEC 500 powered by PilotPC 500 Laser Controllers (Sacher Lasertechnik, Marburg, Germany) were employed. The laser energies were stable at 40 mW for the 748 nm laser, 10 mW for the 649 laser and 10 mW for the 633 laser. The laser energies were regularly measured with a Coherent LaserCheck. In some in vitro experiments, the laser light was focused on an optical fiber through a collimator in microbench, and delivered to the cells. This system reduced the 748 nm laser light to 30 mW.
The cell lines employed in halogen lamp irradiation were the MCF7 (human breast carcinoma), SKMEL 188 (human melanoma) and S91/I3 (mouse melanoma) cells. They were used both for cytotoxicity and photocytotoxicity experiments. MCF7 cells were grown supplemented with 10% fetal calf (FBS) serum, 25 units/ml of penicillin, and 25 μg/ml of streptomycin. Human melanoma cells SKMEL-188 were grown in F10 medium supplemented with 10% fetal calf serum (FCS), 100 units/ml of penicillin, and 100 μg/ml of streptomycin. I3 subline of Cloudman S91 melanoma cells were cultured in RPMI 1640 medium supplemented with 100 units/ml of penicillin, 100 μg/ml streptomycin and 5% fetal calf serum (FCS) (Gibco BRL). […]
Cytotoxicity. Cell metabolic efficiency and viability were determined by the uptake and reduction of 3-(4,5-dimethylthiazol-2-yl)-2,5-diphenyl tetrazolium bromide (MTT) to an insoluble formazan dye by cellular microsomal enzymes. […] The 96-well culture plate was shaken for 0.5 min at room temperature and immediately read for optical density at 560 nm using an ELISA reader (GENios Plus; Tecan Trading AG, Switzerland). The cell survival was expressed by the absorbance changes of the formazan salt, and survival rate was given as the percent ratio of viable treated cells vs. the number of viable untreated cells. Number of cells was determined from linear regression of a calibration curve.
Cell photosensitization. […] The values were obtained from three independent experiments and expressed as percent of cell survival with reference to control cells, which were manipulated in the same manner but without incubation with photosensitizer and without illumination.

Data set [2] in a line: Absorption spectra (λmax, molar absorption coefficient). The format is physicochemical. The following applies: in aqueous solution. The protocol:
Absorption spectra were recorded on a Shimadzu UV-2100 spectrophotometer or with a Carry 50 Biospectrophotometer (Varian, Mulgrave, USA). Fluorescence spectra were measured with a Spex Fluorolog 3 spectrophotometer, with correction for the wavelength dependence system (RCA C31034 photomultiplier), or with a PerkinElmer LS 50 spectrofluorimeter. Transient absorption spectra were measured with an Applied Photophysics LKS 60 nanosecond laser flash photolysis kinetic spectrometer, using the third harmonic of a Spectra-Physics Quanta Ray GCR 130-01 Nd/YAG laser for excitation, a Hamamatsu 1P28 photomultiplier and a Hewlett-Packard Infinium oscilloscope (1 GS/s). Flash photolysis measurements were made in the presence of air and in argon saturated solutions. Photoacoustic calorimetry employed the same Nd/YAG laser, a home-made front-face photoacoustic cell with a 2.25 MHz Panametrics transducer (model 5676) and a Tektronix DSA 601 transient recorder. Room-temperature singlet-oxygen phosphorescence was measured at 1270 nm with a Hamamatsu R5509-42 photomultiplier, cooled to 193 K in a liquid nitrogen chamber (Products for Research model PC176TSCE005), following laser excitation of aerated solutions at 355 nm, using an adapted Applied Photophysics spectrometer. Singlet oxygen emission at 1270 nm was also monitored with a liquid nitrogen-cooled germanium detector (North Coast) coupled to a Tectronix Digitizing scope (TDS 520B), following sample excitation with 5 ns laser pulses of the third harmonic (355 nm) generated by a Q-switched Nd:YAG laser (Continuum Surelite II).
(§2) This is indicative of little aggregation between the molecules, which exist mostly as monomers at these concentrations in the solvents studied. Table 1 presents typical red and infrared molar absorption coefficients (εmax) and wavelength maxima. The same table also presents representative fluorescence quantum yields (ΦF) of Luzitins. The fluorescence quantum yields decrease of these molecules decrease in the presence of chlorine substituents, a fingerprint of the heavy atom effect expected for such molecules.

For data set [3], the system named is MCF7 (human breast carcinoma). In words: Cell photosensitization, filtered halogen lamp, MTT. Format: cell-based. The following applies: [Luzitin-Cl-c] = 20 μM, filtered halogen lamp. The protocol: as §1
(§3) The cell lines employed in halogen lamp irradiation were the MCF7 (human breast carcinoma), SKMEL 188 (human melanoma) and S91/I3 (mouse melanoma) cells. They were used both for cytotoxicity and photocytotoxicity experiments. MCF7 cells were grown supplemented with 10% fetal calf (FBS) serum, 25 units/ml of penicillin, and 25 μg/ml of streptomycin. Human melanoma cells SKMEL-188 were grown in F10 medium supplemented with 10% fetal calf serum (FCS), 100 units/ml of penicillin, and 100 μg/ml of streptomycin. I3 subline of Cloudman S91 melanoma cells were cultured in RPMI 1640 medium supplemented with 100 units/ml of penicillin, 100 μg/ml streptomycin and 5% fetal calf serum (FCS) (Gibco BRL). All cell lines were cultivated as monolayer in Petri dishes of 60 mm diameter and incubated at 37° C. in a humid atmosphere containing 5% CO2.
(§4) Cytotoxicity. Cell metabolic efficiency and viability were determined by the uptake and reduction of 3-(4,5-dimethylthiazol-2-yl)-2,5-diphenyl tetrazolium bromide (MTT) to an insoluble formazan dye by cellular microsomal enzymes. The cell lines were grown in RPMI medium with 10% fetal calf serum, penicillin and streptomycin. Cells were maintained in 5% CO2, 95% air and 100% humidity. For determining cytotoxicity, these cells were plated in 96-well plates at a density of 1×10^4 cells well in complete media. After 24 h, the cells were incubated with photosensitizers at different concentrations (0.25 up to 50 μM) for 18 hours at 37° C. The cells were then washed twice with PBS and incubated in growth medium at 37° C. for 24 h. Next, the medium was replaced by 100 μl of fresh medium and 20 μl of MTT, and the cells were incubated with MTT for 3 h, with a final concentration of 0.5 mg/ml. Then the culture medium was replaced with DMSO-methanol solution (1:1) to dissolve the blue formazan crystals. The 96-well culture plate was shaken for 0.5 min at room temperature and immediately read for optical density at 560 nm using an ELISA reader (GENios Plus; Tecan Trading AG, Switzerland). The cell survival was expressed by the absorbance changes of the formazan salt, and survival rate was given as the percent ratio of viable treated cells vs. the number of viable untreated cells. Number of cells was determined from linear regression of a calibration curve.
(§5) Cell photosensitization. SKMEL 188, S91 and MCF7 cells were prepared as described above. […] The cells were incubated for 12 h at 37° C. and then irradiated at a 0.53 mW cm^2 fluence rate and in doses ranging from 0.1 to 0.64 J cm^2. We recall that photosensitizer uses only ca. ⅕ of the available fluence rate of the filtered halogen lamp. The MTT test was performed 24 h after irradiation. The values were obtained from three independent experiments and expressed as percent of cell survival with reference to control cells, which were manipulated in the same manner but without incubation with photosensitizer and without illumination. […]

In a further data set the test system is S91 (mouse melanoma). Described as above. Format: cell-based. The settings on record: [Luzitin-Cl-c] = 20 μM. On the procedure: as §1, §3, §4, §5
The nature of data set [4]: Fluorescence quantum yield. The settings on record: in aqueous solution. The format is physicochemical. The protocol:
The absorptions of both reference and sample solutions were matched at ca 0.2 at the excitation wavelength of 515.5 nm, and the solutions were diluted by a factor 10 before collecting the fluorescence. The fluorescence quantum yield was obtained from the ratio of the fluorescence bands of the sample vs the reference, multiplied by the fluorescence quantum yield of the reference, 0.012 according to [12], after correction for the difference of refractive indexes of ethanol and toluene.
as §2

Data set [5] in a line: Singlet oxygen quantum yield and lifetime (1270 nm phosphorescence). Format: physicochemical. The settings on record: in aqueous solution.

Consider `O=S(=O)(O)c1ccc(Cl)c(-c2c3nc(c(-c4cc(S(=O)(=O)O)ccc4Cl)c4ccc([nH]4)c(-c4cc(S(=O)(=O)O)ccc4Cl)c4nc(c(-c5cc(S(=O)(=O)O)ccc5Cl)c5ccc2[nH]5)CC4)C=C3)c1` [Luzitin-Cl-c, 5,10,15,20-tetrakis(2-chloro-5-sulfonylphenyl)chlorin], for which, in data set [1], the “LD50 (light dose to kill 50% of the cells)” value is recorded as 0.26 J/cm^2 and the “LD90 (light dose to kill 90% of the cells)” value came to 0.46 J/cm^2. Further, in data set [2], the εmax is recorded as 7,000 M^−1 cm^−1 and the λmax was found to be 650 nm. Moreover, in data set [3], the “LD50 (light dose to kill 50% of the cells)” value is recorded as 0.3 J/cm^2 and the “LD90 (light dose to kill 90% of the cells)” value stood at 0.7 J/cm^2. In addition, in the data set on S91 (mouse melanoma), the “LD50 (light dose to kill 50% of the cells)” value stood at 0.13 J/cm^2 and the “LD90 (light dose to kill 90% of the cells)” value amounted to 0.26 J/cm^2. Also, in data set [4], the “ΦF (fluorescence quantum yield)” value stood at 0.039. For the same molecule, in data set [5], the “ΦΔ (singlet oxygen quantum yield)” value was 0.69.
